Laboratory results published in ChEMBL document CHEMBL1255179, “Fatty acid synthase inhibitors of phenolic constituents isolated from Garcinia mangostana” (Bioorg Med Chem Lett, 2010).

Each molecule was assayed against Fatty acid synthase (Gallus gallus) (UniProt P12276) (assay: Inhibition of FAS at 1000 uM).
Chain of Fatty acid synthase (Gallus gallus) (P12276 whole entry, looked up): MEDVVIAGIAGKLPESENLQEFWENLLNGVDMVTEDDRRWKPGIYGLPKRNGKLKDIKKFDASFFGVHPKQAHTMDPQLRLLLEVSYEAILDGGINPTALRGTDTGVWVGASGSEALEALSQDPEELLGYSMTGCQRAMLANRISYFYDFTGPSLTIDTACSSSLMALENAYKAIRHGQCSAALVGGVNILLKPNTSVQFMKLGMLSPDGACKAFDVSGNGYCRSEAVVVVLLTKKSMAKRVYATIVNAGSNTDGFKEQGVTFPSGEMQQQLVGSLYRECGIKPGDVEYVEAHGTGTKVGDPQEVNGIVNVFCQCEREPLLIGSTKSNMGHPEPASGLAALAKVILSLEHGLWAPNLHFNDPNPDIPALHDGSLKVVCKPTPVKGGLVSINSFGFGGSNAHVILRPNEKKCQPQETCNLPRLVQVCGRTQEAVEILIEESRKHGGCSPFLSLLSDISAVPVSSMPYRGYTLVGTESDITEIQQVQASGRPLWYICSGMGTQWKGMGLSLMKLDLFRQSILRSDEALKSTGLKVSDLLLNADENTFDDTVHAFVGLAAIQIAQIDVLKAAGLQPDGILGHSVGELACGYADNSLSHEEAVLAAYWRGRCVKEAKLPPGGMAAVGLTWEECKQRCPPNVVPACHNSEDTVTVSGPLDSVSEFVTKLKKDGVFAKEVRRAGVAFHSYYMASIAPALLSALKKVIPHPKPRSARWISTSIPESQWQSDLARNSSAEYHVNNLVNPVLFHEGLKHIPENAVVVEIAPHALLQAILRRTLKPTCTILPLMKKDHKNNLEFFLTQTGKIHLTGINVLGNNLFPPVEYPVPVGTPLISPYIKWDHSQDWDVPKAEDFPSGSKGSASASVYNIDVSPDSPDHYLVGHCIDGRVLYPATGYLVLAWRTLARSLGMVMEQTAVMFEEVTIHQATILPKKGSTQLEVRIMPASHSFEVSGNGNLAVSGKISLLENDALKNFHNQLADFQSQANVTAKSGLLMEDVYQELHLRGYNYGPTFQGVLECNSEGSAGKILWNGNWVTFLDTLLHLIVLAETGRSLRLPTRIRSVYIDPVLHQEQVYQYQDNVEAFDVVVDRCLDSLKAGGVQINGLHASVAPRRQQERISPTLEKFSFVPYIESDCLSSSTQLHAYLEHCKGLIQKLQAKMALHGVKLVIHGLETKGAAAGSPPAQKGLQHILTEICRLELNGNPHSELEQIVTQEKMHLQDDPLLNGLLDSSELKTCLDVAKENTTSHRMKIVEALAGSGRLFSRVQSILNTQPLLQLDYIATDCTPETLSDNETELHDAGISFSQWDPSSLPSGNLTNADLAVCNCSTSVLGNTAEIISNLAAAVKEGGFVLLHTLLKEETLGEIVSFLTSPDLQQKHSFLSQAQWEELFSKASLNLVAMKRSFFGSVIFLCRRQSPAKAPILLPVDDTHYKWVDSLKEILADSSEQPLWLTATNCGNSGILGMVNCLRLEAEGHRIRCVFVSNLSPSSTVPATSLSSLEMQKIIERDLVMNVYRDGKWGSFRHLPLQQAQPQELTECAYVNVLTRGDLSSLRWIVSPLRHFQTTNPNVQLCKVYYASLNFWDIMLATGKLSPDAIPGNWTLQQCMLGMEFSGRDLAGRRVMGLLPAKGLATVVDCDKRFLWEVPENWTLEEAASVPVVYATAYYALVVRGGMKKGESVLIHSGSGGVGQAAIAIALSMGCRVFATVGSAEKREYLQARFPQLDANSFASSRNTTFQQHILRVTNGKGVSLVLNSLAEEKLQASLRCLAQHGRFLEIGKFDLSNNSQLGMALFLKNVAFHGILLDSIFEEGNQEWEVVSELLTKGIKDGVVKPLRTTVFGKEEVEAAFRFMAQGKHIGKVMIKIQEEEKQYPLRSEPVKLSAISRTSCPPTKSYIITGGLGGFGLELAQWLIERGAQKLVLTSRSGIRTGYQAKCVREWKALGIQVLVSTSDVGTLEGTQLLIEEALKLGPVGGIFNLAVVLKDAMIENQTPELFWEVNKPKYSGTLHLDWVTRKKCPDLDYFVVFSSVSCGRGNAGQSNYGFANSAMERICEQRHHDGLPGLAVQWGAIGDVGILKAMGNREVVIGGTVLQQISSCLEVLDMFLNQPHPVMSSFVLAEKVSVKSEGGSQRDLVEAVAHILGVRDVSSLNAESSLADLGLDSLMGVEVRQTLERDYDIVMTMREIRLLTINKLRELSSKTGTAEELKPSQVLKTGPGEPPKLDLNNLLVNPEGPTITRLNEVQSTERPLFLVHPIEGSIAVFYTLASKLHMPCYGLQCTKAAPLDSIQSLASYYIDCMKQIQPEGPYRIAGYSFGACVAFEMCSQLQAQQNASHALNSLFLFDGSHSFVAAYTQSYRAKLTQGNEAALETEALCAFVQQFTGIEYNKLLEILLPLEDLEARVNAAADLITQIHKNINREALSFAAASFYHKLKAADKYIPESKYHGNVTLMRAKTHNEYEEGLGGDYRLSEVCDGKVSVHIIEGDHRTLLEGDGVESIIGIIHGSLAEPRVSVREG

Row | IC50 | Compound
1 | > 1 mM | Oc1cc(O)c2c(c1)O[C@@H](c1ccc(O)c(O)c1)[C@@H](O)C2 [(+)-EPICATECHIN]

These molecules were tested against Fatty acid synthase (Gallus gallus) (UniProt P12276) (assay: Inhibition of FAS).

Row | IC50 | Compound
2 | 14.8 µM | O=C(c1cccc(O)c1)c1cc(O)c(O)c(O)c1
3 | 8.59 µM | O=C(c1cc(O)cc(O)c1)c1c(O)cc(O)cc1O
4 | 17.9 µM | O=c1c2cc(O)c(O)cc2oc2cc(O)cc(O)c12
5 | 24.8 µM | COc1cc2oc3cc(O)c(OC)c(CC=C(C)C)c3c(=O)c2c(O)c1CC=C(C)C
6 | 41 µM | O=c1c2cc(O)ccc2oc2cc(O)cc(O)c12
7 | 91.1 µM | COc1cc(CCCO)cc2cc(-c3ccc4c(c3)OCO4)oc12 [EGONOL]
8 | 3.3 µM | CC(C)=CCc1c(O)cc2oc3c(CC=C(C)C)c(O)c(O)c(CC=C(C)C)c3c(=O)c2c1O [GARCINONE E]
9 | 40.6 µM | COc1c(O)cc2oc3cc4c(c(O)c3c(=O)c2c1CC=C(C)C)C=CC(C)(C)O4 [MANGOSTANIN]
10 | 5.54 µM | COc1c(O)cc2oc3cc(O)c(CC=C(C)C)c(O)c3c(=O)c2c1CC=C(C)C [MANGOSTIN]
11 | 49.2 µM | C[C@@H]1O[C@@H](O[C@@H]2C(=O)c3c(O)cc(O)cc3O[C@H]2c2cc(O)cc(O)c2)[C@H](O)[C@H](O)[C@H]1O [NEOSMITILBIN]

Row | Compound | IC50
12 | CC(C)=CCc1c(O)cc2oc3cc(O)c(O)c(CC=C(C)C)c3c(=O)c2c1O | 1.24 µM
13 | O=C(O[C@@H]1Cc2c(O)cc(O)cc2O[C@@H]1c1cc(O)c(O)c(O)c1)c1cc(O)c(O)c(O)c1 [EPIGALOCATECHIN GALLATE] | 52 µM
